Measured values as given in US20260257987A1, “COMPOUNDS AND METHOD FOR UPREGULATION OF P53 THROUGH INDUCTION OF MDM2 DEGRADATION” (Georgia State University Research Foundation, Inc., priority 2022, published 2026).

Key:
[1] = Thiol (NAC) reactivity study by HPLC; format: physicochemical
Method: HPLC was performed on Shimadzu LC-20AT HPLC system. Condition: mobile phase A: water with 0.05% TFA; B: acetonitrile with 0.05% TFA; gradient: 5-95% B, 0-10 min; […]; 5% B 12.1-15 min. Column: C18, 3.5 μm, 4.6×150 mm; UV detector monitored at 254 nm. For the thiol reactivity assay, a 0.3 mM solution of AQ-analogs was prepared in 0.5 mL PBS: MeOH (80:20) and warmed at 37° C. Next, 25 μL of NAC (from 30 mM stock solution in PBS) was added to the above solution. The resultant solution had final concentrations of 0.3 mM AQ-analogs and 1.5 mM NAC. 20 μL of the reaction mixture was injected into the HPLC at the designated time intervals. The area percentage values were determined via the integration of the area under the curve (AUC) of the chromatogram.

[2] = test system: RS4;11 cells (wild-type p53); assay: Cytotoxicity test of BW-AQ-365 (CCK-8) in RS4;11 cells; format: cell-based; conditions: for IC50: Homo sapiens, RS4
Method: Cell viability was assessed by using Cell Counting Kit-8 (CCK-8, Dojindo, Japan). RS4;11 cells (wild-type p53) were cultured in RPMI-1640 medium (Corning, USA). The culture mediums were supplemented with 10% fetal bovine serum (Corning, USA) and 100 unit/ml penicillin, and […] streptomycin. […] Compounds were dissolved in DMSO (molecular biology grade, Sigma-Aldrich, USA) to make 10 mM stock solutions, which were serially diluted with the culture medium to various concentrations (final DMSO concentration=0.5%). A culture medium (50 μL) containing BW-AQ-365 was added directly to the cell suspension in each well immediately after seeding. After incubation for 24-72 h at 37° C. in a humidified atmosphere with 5% CO2, 10 μL of CCK-8 solution was added to each well, and the plate was incubated for an additional 2-4 h at 37° C. before measuring the optical density at 450 nm with a microplate reader (PerkinElmer Victor 2, USA). The cell viability of each well was calculated as the percentage of the untreated control according to the manufacturer's manual. All tests were performed in triplicates, and IC50 values were determined by non-linear regression using GraphPad Prism 9.0.

[3] = test system: EU-1 (in-house cell line); assay: Cytotoxicity test of BW-AQ-365 (CCK-8) in EU-1 cells; format: cell-based; conditions: EU-1, 25000 cells/well, 24 h
[4] = test system: MDM2 level in RS4;11 cells; assay: Preliminary study of MDM2 level in RS4;11 cells; format: cell-based

reactivity towards thiol, in words [1]: less reactivity towards thiol
Structure (SMILES): CC(=O)CCCOc1cccc2c1C(=O)c1c(OCCCC(C)=O)cc(NC(=O)CN=[N+]=[N-])cc1C2=O [BW-AQ-365, 2-azido-N-(9,10-dioxo-4,5-bis ((4-oxopentyl)oxy)-9,10-dihydroanthracen-2-yl)acetamide]
IC50 ([2]; RS4-11, 48 h, 11, 10000 cells/well, 48 h): 190 ± 10 nM
IC50 ([2]; RS4-11, 48 h, 11, 25000 cells/well, 48 h): 610 ± 30 nM
IC50 ([2]; RS4-11, 72 h, 11, 25000 cells/well, 72 h): 5500 ± 320 nM
anticancer activity in RS4;11 cells compared with BW-AQ-295 ([2]; RS4;11 cells): more potent than BW-AQ-295
IC50 [3]: 1550 ± 440 nM
MDM2 level in RS4;11 cells [4]: dose-dependently decrease MDM2 level
